In patent US6511993B1, “Metalloprotease inhibitors” (priority 1999, dated 2003):
pIC50: −log10 of the molar value. Counter-ions that a name gives are not always drawn.

Columns and labels:
[1] = test system: human ovarian carcinoma xenografts; conditions: mice carrying human ovarian carcinoma xenografts; Cancer Res., 1993, 53, 2087; cited from earlier work
[2] = target: T1, MMP-3 (Homo sapiens, UniProt P08254); assay: Inhibition of MMP-3, fluorogenic peptide cleavage; format: biochemical; conditions: catalytic domain MMP-3, 1 nM enzyme, 5 μM substrate
T1 construct: Catalytic domains MMP-2, MMP-3 and MMP-9 were prepared; made in house
Method: (§1) The biological activities of the compounds of the present invention were determined by the following test methods, which are based on the ability of the compounds to inhibit the cleavage of various fluorogenic peptides by MMPs 1, 2, 3, 9, 13 and 14.
(§2) The assays for MMPs 2, 3, 9 and 14 are based upon the original protocol described in Fed. Euro. Biochem. Soc., 1992, 296, 263, with the minor modifications described below.
(§3) Inhibition of MMP-2, MMP-3 and MMP-9
(§4) Catalytic domains MMP-2, MMP-3 and MMP-9 were prepared in Pfizer Central Research laboratories in a standard manner from sources known to the skilled person, including some of the references mentioned herein. A stock solution of MMP-2, MMP-3 or MMP-9 (1 μM) was activated by the addition of APMA. For MMP-2 and MMP-9, a final concentration of 1 mM APMA was added, followed by incubation for 1 hour at 37° C. MMP-3 was activated by the addition of 2 mM APMA, followed by incubation for 3 hours at 37° C. The enzymes were then diluted in Tris-HCl assay buffer (100 mM Tris, 100 mM NaCl, 10 mM CaCl2 and 0.16% Brij 35, pH 7.5) to a concentration of 10 nM. The final concentration of enzyme used in the assays was 1 nM.
(§5) The fluorogenic substrate used in this screen was Mca-Arg-Pro-Lys-Pro-Tyr-Ala-Nva-Trp-Met-Lys(Dnp)-NH2 (Bachem Ltd., Essex, UK) as originally described in J. Biol. Chem., 1994, 269, 20952. This substrate was selected because it has a balanced hydrolysis rate against MMPs 2, 3 and 9 (kcat/km of 54,000, 59,400 and 55,300 s^−1 M^−1 respectively). The final substrate concentration used in the assay was 5 μM.
(§6) Determination of Enzyme Inhibition
(§7) The test compound was dissolved in dimethyl sulphoxide and diluted with assay buffer so that no more than 1% dimethyl sulphoxide was present. Test compound and enzyme were added to each well of a 96 well plate and allowed to equilibrate for 15 minutes at 37° C. in an orbital shaker prior to the addition of substrate. Plates were then incubated for 1 hour at 37° C., prior to determination of fluorescence using a fluorimeter (Fluostar; BMG LabTechnologies, Aylesbury, UK) at an excitation wavelength of 328 nm and emission wavelength of 393 nm. The potency of inhibition was measured from the amount of substrate cleavage obtained using a range of test compound concentrations and, from the resulting dose-response curve, an IC50 value (the concentration of inhibitor required to inhibit 50% of the enzyme activity) was calculated.

[3] = target: MMP-2 (Homo sapiens, UniProt P08253); assay: Inhibition of MMP-2, fluorogenic peptide cleavage; format: biochemical; conditions: catalytic domain MMP-2, 1 nM enzyme, 5 μM substrate
Method: as §1, §2, §3, §4, §5, §6, §7

[4] = target: T2, MMP-1 (Homo sapiens, UniProt P03956); assay: Inhibition of MMP-1, fluorogenic peptide cleavage; format: biochemical; conditions: catalytic domain MMP-1, 1 nM enzyme, 10 μM substrate
T2 construct: Catalytic domain MMP-1 was prepared; made in house
T2 sequence (P03956 100-269 limits assumed): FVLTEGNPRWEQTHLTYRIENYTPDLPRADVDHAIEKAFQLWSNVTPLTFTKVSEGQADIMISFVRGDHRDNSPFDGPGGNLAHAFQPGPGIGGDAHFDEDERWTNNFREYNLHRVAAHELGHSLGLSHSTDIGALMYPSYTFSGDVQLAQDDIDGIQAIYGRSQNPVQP
Method: as §1
Catalytic domain MMP-1 was prepared in Pfizer Central Research laboratories in a standard manner from sources known to the skilled person, including some of the references mentioned herein. A stock solution of MMP-1 (1 μM) was activiated by the addition of aminophenylmercuric acetate (APMA), at a final concentration of 1 mM, for 20 minutes at 37° C. MMP-1 was then diluted in Tris-HCl assay buffer (50 mM Tris, 200 mM NaCl, 5 mM CaCl2, 20 μM ZnSO4 and 0.05% Brij 35, pH 7.5) to a concentration of 10 nM. The final concentration of enzyme used in the assay was 1 nM.
The fluorogenic substrate used in this assay was Dnp-Pro-β-cyclohexyl-Ala-Gly-Cys(Me)-His-Ala-Lys-(N-Me-Ala)-NH2 as originally described in Anal. Biochem., 1993, 212, 58. The final substrate concentration used in the assay was 10 μM.
as §6
as §7, with “C.” for “C.,”, “fluorescence (substrate cleavage)” for “fluorescence”, “355” for “328”, “440” for “393”, “IC50,” for “IC50”

[5] = target: T3, MMP-14 (Homo sapiens, UniProt P50281); assay: Inhibition of MMP-14, fluorogenic peptide cleavage; format: biochemical; conditions: catalytic domain MMP-14, 1 nM enzyme
T3 construct: Catalytic domain MMP-14 was prepared; made in house
Method: as §1, §2
Catalytic domain MMP-14 was prepared in Pfizer Central Research laboratories in a standard manner from sources known to the skilled person, including some of the references mentioned herein. A 10 μM enzyme stock solution was activated for 20 minutes at 25° C. following the addition of 5 μg/ml of trypsin (Sigma, Dorset, UK). The trypsin activity was then neutralised by the addition of 50 μg/ml of soyabean trypsin inhibitor (Sigma, Dorset, UK), prior to dilution of this enzyme stock solution in Tris-HCl assay buffer (100 mM Tris, 100 mM NaCl, 10 mM CaCl2, 0.16% Brij 35, pH 7.5) to a concentration of 10 nM. The final concentration of enzyme used in the assay was 1 nM.
The fluorogenic substrate used in this screen was Mca-Pro-Leu-Gly-Leu-Dpa-Ala-Arg-NH2 (Bachem Ltd., Essex, UK) as described in J. Biol. Chem., 1996, 271, 17119.
Determination of enzyme inhibition
This was performed in the same manner as described for MMPs 2, 3 and 9.

[6] = target: MMP-9 (Homo sapiens, UniProt P14780); assay: Inhibition of MMP-9, fluorogenic peptide cleavage; format: biochemical; conditions: catalytic domain MMP-9, 1 nM enzyme, 5 μM substrate
Method: as §1, §2, §3, §4, §5, §6, §7

T1 sequence (P08254 100-272 limits assumed): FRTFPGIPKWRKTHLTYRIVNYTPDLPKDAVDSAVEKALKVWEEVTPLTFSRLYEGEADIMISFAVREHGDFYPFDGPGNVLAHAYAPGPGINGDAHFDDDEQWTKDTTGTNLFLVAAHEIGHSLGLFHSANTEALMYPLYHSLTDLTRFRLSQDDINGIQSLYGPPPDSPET
Chain of MMP-9 (P14780 whole entry, the tested form may be a part): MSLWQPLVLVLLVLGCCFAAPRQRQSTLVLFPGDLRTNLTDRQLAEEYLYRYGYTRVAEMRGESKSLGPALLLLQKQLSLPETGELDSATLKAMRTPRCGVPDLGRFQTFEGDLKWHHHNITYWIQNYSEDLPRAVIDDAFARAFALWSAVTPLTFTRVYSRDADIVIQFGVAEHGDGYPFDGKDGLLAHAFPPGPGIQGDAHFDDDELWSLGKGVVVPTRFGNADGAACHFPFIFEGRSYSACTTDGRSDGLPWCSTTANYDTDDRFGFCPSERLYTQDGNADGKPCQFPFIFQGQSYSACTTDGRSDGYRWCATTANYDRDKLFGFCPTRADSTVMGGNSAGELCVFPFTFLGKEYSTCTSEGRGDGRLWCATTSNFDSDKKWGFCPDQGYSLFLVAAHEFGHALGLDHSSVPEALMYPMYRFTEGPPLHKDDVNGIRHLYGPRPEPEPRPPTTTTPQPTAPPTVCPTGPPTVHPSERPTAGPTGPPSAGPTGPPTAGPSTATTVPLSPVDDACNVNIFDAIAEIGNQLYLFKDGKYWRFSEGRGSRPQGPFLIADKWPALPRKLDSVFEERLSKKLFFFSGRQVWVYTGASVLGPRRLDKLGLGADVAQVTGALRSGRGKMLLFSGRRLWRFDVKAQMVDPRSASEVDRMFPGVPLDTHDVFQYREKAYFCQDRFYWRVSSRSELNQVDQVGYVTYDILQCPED
Chain of MMP-2 (P08253 whole entry, the tested form may be a part): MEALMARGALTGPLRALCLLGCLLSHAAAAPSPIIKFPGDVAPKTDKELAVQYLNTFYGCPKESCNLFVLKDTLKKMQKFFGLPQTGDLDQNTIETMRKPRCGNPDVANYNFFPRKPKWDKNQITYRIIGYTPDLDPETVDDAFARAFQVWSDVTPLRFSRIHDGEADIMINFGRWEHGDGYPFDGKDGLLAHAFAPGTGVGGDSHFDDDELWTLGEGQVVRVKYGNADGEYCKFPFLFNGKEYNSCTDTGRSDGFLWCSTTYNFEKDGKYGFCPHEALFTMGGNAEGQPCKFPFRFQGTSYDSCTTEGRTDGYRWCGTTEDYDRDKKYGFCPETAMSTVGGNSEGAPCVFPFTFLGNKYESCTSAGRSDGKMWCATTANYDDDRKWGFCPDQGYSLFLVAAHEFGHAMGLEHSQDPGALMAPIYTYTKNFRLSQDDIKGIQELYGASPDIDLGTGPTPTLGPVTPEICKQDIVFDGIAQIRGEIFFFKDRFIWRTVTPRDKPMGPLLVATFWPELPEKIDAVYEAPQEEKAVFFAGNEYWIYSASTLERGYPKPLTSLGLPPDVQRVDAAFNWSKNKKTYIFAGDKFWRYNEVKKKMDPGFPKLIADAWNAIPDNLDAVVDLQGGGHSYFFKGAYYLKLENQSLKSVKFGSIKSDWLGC

Structure (SMILES)	pIC50 [2]	pIC50 [3]	pIC50 [4]	pIC50 [5]	pIC50 [6]	melting point [°C]	survival [1]	tumour burden [1]
CNC(=O)[C@H](Cc1ccccc1)NC(=O)[C@H](CC(C)C)[C@H](CSc1cccs1)C(=O)NO [BB-94]	–	–	–	–	–	–	prolong the survival	decrease the tumour burden
Cc1cc(C2CCN(S(=O)(=O)C3(C(=O)NO)CCNCC3)CC2)ccc1-c1cccc(OCCO)n1 [Example 6, N-Hydroxy 4-{[4-(4-{6-[2-hydroxyethoxy]pyridin-2-yl}-3-methylphenyl)piperidin-1-yl]sulphonyl}-piperidine-4-carboxamide dihydrochloride]	> 8.00	< 7.00	< 6.00	< 5.70	< 7.15	–	–	–
Cc1cc(C2CCN(S(=O)(=O)C3(C(=O)NO)CCN(C)CC3)CC2)ccc1-c1cccc(OCCO)n1 [Example 7, N-Hydroxy 4-{[4-(4-{6-[2-hydroxyethoxy]pyridin-2-yl}-3-methylphenyl)piperidin-1-yl]sulphonyl}-1-methyl-piperidine-4-carboxamide]	> 8.00	< 7.00	< 6.00	< 5.70	< 7.15	–	–	–
Cc1cc(C2CCN(S(=O)(=O)C3(C(=O)NO)CCOCC3)CC2)ccc1-c1cccc(OC[C@@H](O)CO)c1 [Example 10, N-Hydroxy 4-{4-[4-(3-{(2S)-2-hydroxy-2-hydroxymethyl}ethoxyphenyl)-3-methylphenyl]-piperidin-1-ylsulphonyl}-tetrahydro-2H-pyran-4-carboxamide]	> 8.00	< 7.00	< 6.00	< 5.70	< 7.15	–	–	–
Cc1cc(C2CCN(S(=O)(=O)C3(C(=O)NO)CCOCC3)CC2)ccc1-c1cccc(OCCN)c1.Cl [Example 14, N-Hydroxy 4-{[4-(-4-{3-[2-aminoethoxy]phenyl}-3-methylphenyl)piperidin-1-yl]sulphonyl}tetrahydro-2H-pyran-4-carboxamide hydrochloride]	> 8.00	< 7.00	< 6.00	< 5.70	< 7.15	208 to 210	–	–

Further lines, with some results ahead:

pIC50 [2]	pIC50 [3]	pIC50 [4]	pIC50 [5]	pIC50 [6]	melting point [°C]	Structure (SMILES)	survival [1]	tumour burden [1]
> 8.00	< 7.00	< 6.00	< 5.70	< 7.15	–	Cc1cc(C2CCN(S(=O)(=O)C3(C(=O)NO)CCOCC3)CC2)ccc1-c1cccc(OCCO)n1 [Example 3, N-Hydroxy 4-{[4-(4-{6-[2-hydroxyethoxy]pyridin-2-yl}-3-methylphenyl)piperidin-1-yl]sulphonyl}tetrahydro-2H-pyran-4-carboxamide]	–	–
> 8.00	< 7.00	< 6.00	< 5.70	< 7.15	–	Cc1cc(C2CCN(S(=O)(=O)C3(C(=O)NO)CCOCC3)CC2)ccc1-c1cccc(OC[C@@H](O)CO)n1 [Example 4, N-Hydroxy 4-{[4-(4-{6-[(2S)-2,3-dihydroxy-1-propoxy]pyridin-2-yl}-3-methylphenyl)piperidin-1-yl]sulphonyl}tetrahydro-2H-pyran-4-carboxamide]	–	–
> 8.00	< 7.00	< 6.00	< 5.70	< 7.15	125 to 130	Cc1cc(C2CCN(S(=O)(=O)C3(C(=O)NO)CCOCC3)CC2)ccc1-c1cccc(OC[C@H](O)CO)n1 [Example 5, N-Hydroxy 4-{[4-(4-{6-[(2R)-2,3-dihydroxy-1-propoxy]pyridin-2-yl}-3-methylphenyl)piperidin-1-yl]sulphonyl}tetrahydro-2H-pyran-4-carboxamide]	–	–
